Laboratory results published in ChEMBL document CHEMBL5532691, “Anti-cancer activity and mechanism of flurbiprofen organoselenium compound RY-1-92 in non-small cell lung cancer” (RSC Med Chem, 2024).

Tested on: BEAS-2B
Test: Cytotoxicity against human BEAS-2B cells assessed as reduction in cell viability at 1.2 mM measured after 48 hrs by MTT assay
Format: toxicity, cell-based
Conditions: 1200 µM

## CC1=C(CC(=O)O)c2cc(F)ccc2/C1=C\c1ccc([S+](C)[O-])cc1 (stereo unspecified) [SULINDAC]
  Activity: Toxic
